Patent US12577231B2, “Androgen receptor PROTACS” (GlaxoSmithKline Intellectual Property Development Limited, priority 2023, dated 2026)

How the values were obtained:
[1] = tested on: Androgen Receptor in human prostate cancer cell lines; assay: Androgen Receptor Degradation-Imaging Assay, all prostate cancer cell lines (FIG. 2); type: cell-based; settings: 16 hours treatment
Experimental: Degradation of Androgen Receptor (AR) protein in human prostate cancer cell lines (MDA-PCa-2b (AR T878A/L702H), LNCaP (AR T878A), VCaP (AR wild type and amplified) 22RV1 (AR H875Y) and PC3 (AR negative control)) treated with AR PROTACs was quantified using immunofluorescence. Prostate cancer cells were plated (MDA-PCa-2b, and VCaP 16,000 cells/well; LNCaP and 22RV1 32,000 cells/well, and PC3 8,000 cells/well) in an optical bottom 96-well cell culture plate and allowed to attach overnight. The prostate cancer cell lines were treated for 16 hours with a 10-point 3-fold dilution series (dose range=0.02 nM to 333 nM). PC3 is included as an AR negative control and not treated with compound. […] Following washes with IF buffer, cells were incubated with fluorescent secondary antibody (Goat anti-rabbit Alexa 647; commercially available from Invitrogen) and Hoechst nuclear stain (commercially available from Themo Scientific) prior to quantification of nuclear AR levels via Opera Phenix high-content fluorescent imager using a 40× water objective. […]
The averaged nuclear Alexa 647 median fluorescence intensity (MFI) of PC3 cells is subtracted from the nuclear Alexa 647 MFI of PROTAC treated and DMSO control treated cells. % AR remaining is calculated for PROTAC treatments as a percent of the DMSO control (MFI PROTAC treated/MFI DMSO control treated)*100). […]

[2] = biological target: T1, wild type androgen receptor (Homo sapiens, UniProt P10275); assay: Degradation of overexpressed Androgen Receptor in A549 cells (HiBiT), wild type; type: cell-based; settings: A549 cells overexpressing AR WT, cycloheximide, 24 hours
T1 construct: expressed in transfected cells; host or cells: A549, transduced, puromycin selected
T1 sequence (P10275 1-920): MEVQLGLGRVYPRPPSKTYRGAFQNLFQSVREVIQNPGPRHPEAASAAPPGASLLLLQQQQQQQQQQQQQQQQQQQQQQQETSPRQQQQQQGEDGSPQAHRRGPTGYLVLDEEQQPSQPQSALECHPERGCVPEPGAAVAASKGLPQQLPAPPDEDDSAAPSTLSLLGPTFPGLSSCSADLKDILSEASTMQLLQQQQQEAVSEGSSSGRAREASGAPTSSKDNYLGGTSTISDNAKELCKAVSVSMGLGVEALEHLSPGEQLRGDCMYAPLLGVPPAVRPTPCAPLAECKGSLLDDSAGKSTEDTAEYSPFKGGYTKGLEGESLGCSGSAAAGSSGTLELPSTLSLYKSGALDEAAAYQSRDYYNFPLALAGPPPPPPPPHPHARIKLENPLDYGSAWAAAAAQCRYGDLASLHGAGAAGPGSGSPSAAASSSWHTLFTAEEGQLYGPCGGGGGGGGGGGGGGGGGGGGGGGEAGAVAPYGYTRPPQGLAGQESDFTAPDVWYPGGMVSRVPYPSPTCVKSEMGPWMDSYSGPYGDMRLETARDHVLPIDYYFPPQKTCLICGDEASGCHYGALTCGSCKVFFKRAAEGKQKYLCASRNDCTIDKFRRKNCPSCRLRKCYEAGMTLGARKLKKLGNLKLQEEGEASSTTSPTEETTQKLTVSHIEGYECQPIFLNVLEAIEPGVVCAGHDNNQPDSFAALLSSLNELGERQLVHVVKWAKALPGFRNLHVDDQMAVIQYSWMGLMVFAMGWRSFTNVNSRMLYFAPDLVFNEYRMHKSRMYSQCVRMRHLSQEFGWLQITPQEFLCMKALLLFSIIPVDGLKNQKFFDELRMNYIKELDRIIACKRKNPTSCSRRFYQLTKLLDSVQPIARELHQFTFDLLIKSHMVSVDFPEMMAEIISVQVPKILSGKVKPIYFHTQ
Experimental: A549 cells were transduced to express wild type androgen receptor and Androgen receptor containing the following mutations (L702H, H875Y W742C W742L F877L, T878A and T878A/H875Y) with HiBiT tags. Transduced cells following puromycin selection were maintained in a humidified incubator (at 37° C. and 5% CO2 in the DMEM medium supplemented with 1% (v/v) Pen/Strep, 1% (v/v) Glutamax and 10% (v/v) FBS. A549 cells expressing each AR construct were detached from plate and counted. Cell suspensions at density 0.2 million per mL were prepared. Cell suspension was supplemented with 100 μg/mL of cycloheximide to block protein synthesis. Cells were preincubated with cycloheximide for 1 hr before seeding. Cells were seeded onto 384-well plate at density of 5,000 in 25 μL per well. A two fold serial dilution of test compounds, starting from 1 μM (row A) in 2-fold serial dilution series across the column using Tecan D300e dispenser. […]
Nano-Glo HiBiT Lytic reagent was prepared by adding LgBiT protein and Nano-Glo® substrate to lytic buffer pre-equilibrated at room temperature following manufacturer protocol (https://www.promega.co.uk/resources/protocols/technical-manuals/101/nanoglo-luciferase-assay-system-protocol). […] The plates were then centrifuged (100×G, 1 min) and incubated on shaker for 10 mins before taking readings on Pherastar Luminescence microplate reader. […]

Summary pXC50 [2]: 8.95
Compound: COc1cc(O[C@H]2C(C)(C)[C@H](NC(=O)c3ccc(N4CCC(CN5CCC(n6ncc7c(N8CCC(=O)NC8=O)nccc76)CC5)CC4)c(F)c3)C2(C)C)ccc1C#N [Example 20, N-((1r,3r)-3-(4-Cyano-3-methoxyphenoxy)-2,2,4,4-tetramethylcyclobutyl)-4-(4-((4-(4-(2,4-dioxotetrahydropyrimidin-1(2H)-yl)-1H-pyrazolo[4,3-c]pyridin-1-yl)piperidin-1-yl)methyl)piperidin-1-yl)-3-fluorobenzamide]
percentage of Androgen Receptor remaining versus concentration (FIG. 2) [1]: Good reductions
